Patent EP1452605A1, “Method for determining antiviral activity” (Universiteit Utrecht Holding B.V., priority 2003, dated 2004)

Tests used:
[1] = Cellular viability assay (MTT) of PBL; assay type: cell-based; conditions: human, 7 days, read-out: TC50
MHV-A59 = assay: MHV infection of mouse L cells, CPE scoring; assay type: cell-based, Mouse hepatitis virus (MHV); conditions: 24h, 143 to 0.009 µM
Method: (§1) After 24h, the cytopatic effect (CPE) of the virus and the cytotoxicity of the compounds were scored by microscopic observation.

184V = assay: Drug susceptibility assay (cell-killing MTT assay) in MT-2 cells; conditions: Human immunodeficiency virus 1, MT2, 120 h
Method: The cells were maintained at 37°C, 5% CO2. One day prior to the experiments, the cells were passaged 1:1 in a concentration of 1 × 10^6 cells/ml.
The genes that contain the drug resistance mutations are excised from the clinical isolates and cloned into the genetic background of HXB2. Thus all tested HIV-1 strains have the same genetic background. […] This strain contains an insertion of two a.a. between codons 68 and 69 of RT as well as an a.a. change at codon 67.
After 5 days of incubation a cellular viability assay was performed as described above. In this case, the amount of formazan reflects the number of cells protected by the drug against killing by the virus and is used as a read out for drug susceptibility.

in vitro = conditions: human, pbmc
RSV serotype A = assay: RSV infection of HEp-2 cells, FACS with FITC anti-RSV antibody; assay type: cell-based, Respiratory syncytium virus (RSV); conditions: HEp-2 cells, 4, 5 and 6 days, all APHS concentrations tested
Method: RSV infection of the HEp-2 cell line was performed as described elsewhere (Hament J-M et al., submitted for publication). Briefly, HEp-2 cells were recovered from the culture flasks by trypsinization. Concentrations of HEp-2 cells were determined by microscopic observation in order to have a confluent monolayer at the day of measurement. HEp-2 cells were incubated with APHS and infected with different dilutions of RSV in order to have a good infection at the day of measurement. […] The cells were washed with PBS^2+ (PBS containing 0.15 mM Ca^2+ and 0.5 mM Mg^2+) and incubated with murine-anti-RSV monoclonal antibody conjugated to fluorescein isothiocyanate (FITC) (DAKO, Cambridgeshire, UK) for 15 minutes at 37 °C. Afterwards, cells were washed and resuspended in PBS^2+. Percentage of fluorescent cells was analyzed by FACSCalibur flow cytometer (Becton Dickinson, CA, USA) with computer assisted evaluation data (CellQuest Pro).

HIV-1Ba-L = assay: Entry assay: gag RNA in PBMC by real-time Taqman PCR; assay type: cell-based; conditions: gag RNA in PBMC 2h after infection, 10 or 30 µM APHS
Method: PBMC infection with HIV-1Ba-L or HIV-1HXB2 for real-time Taqman PCR The ability of HIV-1Ba-L to enter the cells in the presence of APHS was tested using DS as positive control (entry assay). The amount of HIV-1HXB2 reverse transcription products in the presence of APHS was also tested, using AZT as positive control (reverse transcription assay). Before infection, PHA-stimulated PBMC from the PBMC batch were pre-incubated with different concentrations of APHS, DS or AZT for 24 h. […]
Real-time Taqman PCR is based on cleavage of a probe, hybridized to the target sequence by 5'-3' nuclease activity of Taq DNA polymerase during amplification, as described previously ^24. […] Once separated from the quencher, the reporter dye emits its characteristic fluorescence, which can then be measured. The amount of fluorescence measured is proportional to the amount of PCR product.
HIV-1 gag cDNA and HIV-1 (-) strong stop and gag DNA were amplified and quantified by real-time Taqman PCR as described elsewhere ^25. […] To quantify the amount of gag RNA in the samples, a cDNA standard curve was prepared from five-fold dilutions of extracted RNA from an HXB2 viral batch, of which the RNA amount was previously determined.

Mouse L cells = assay: Cytotoxicity in mouse L cells by microscopic observation
Method: as §1

PBMC = assay: Cellular viability assay (MTT) of PBMC; conditions: PBMC viability, 7 days

Method for MT2 cells: After 5 days of incubation a cellular viability assay was performed as described above.

Question: With `CCCCC#CCSc1ccccc1OC(C)=O` [APHS, o-(acetoxyphenyl)hept-2-ynyl sulfide] as the molecule, how does the CC50 at 168 h [1] read?
Answer: Its CC50 at 168 h is 147 µM.

Question: And the “effect on MHV replication (CPE)” value (MHV-A59)?
Answer: The value was “no effect”.

Question: What about the “toxicity for MT2 cells” value (MT2 cells) of the same molecule?
Answer: Its value is “did not show any significant toxicity”.

Question: What about the IC50 (184V) of the same molecule?
Answer: Its IC50 is 5 µM.

Question: What about the CC50 at 168 h (in vitro) of the same molecule?
Answer: Its CC50 at 168 h is 105 µM.

Question: What about the “inhibition of RSV replication” value (RSV serotype A) of the same molecule?
Answer: The value was “no inhibition of RSV replication”.

Question: What about the “viral entry” value (HIV-1Ba-L) of the same molecule?
Answer: Its value is “no inhibition of viral entry”.

Question: And the “cytotoxicity by microscopic observation” value (Mouse L cells)?
Answer: The value was “not cytotoxic”.

Question: What about the “cytotoxic at concentrations above” value (PBMC) of the same molecule?
Answer: Its value is “above 30 µM”.
